# Literature values in publication PMC3048208 (British Journal of Cancer, 2011).
# Parameters: method as in Kelly et al, 2005; Steele et al, 2008
# Conditions: ref Kelly et al, 2005; Steele et al, 2008; cited from earlier work
row,Compound,half-life [h]
1,O=C(/C=C/c1cccc(S(=O)(=O)Nc2ccccc2)c1)NO [belinostat],1 to 2
2,"O=C(CCCCCCC(=O)Nc1ccccc1)NO [vorinostat, suberoylanilide hydroxamic acid]",1 to 2
